From paper PMC8658963, “Synthesis and Evaluation of Trypanocidal Activity of Chromane-Type Compounds and Acetophenones” (Molecules, 2021) come the findings set out here.

Like-named read-outs stand apart in the source and are kept apart here. Where only a bound is given, the exact number is not on record here.

The nature of series [1]: in vitro. The following applies: human, Cytotoxicity (LC50). The method, then: (§1) Cytotoxicity was evaluated in the human monocyte cell line U-937 (ATCC CRL-1593.2) at the exponential growth phase, adjusted at 1 × 10^5 cells/mL in complete RPMI-1640 medium (RPMI-1640 enriched with 200 mM L-glutamine, 10% inactivated fetal bovine serum (FBS) and 1% of a mixture of 10,000 IU/mL penicillin plus […] streptomycin). Then, in each well of a 96-well tissue culture plate were dispensed […] of cells plus […] of each compound (as one of six serials 1:2 dilution concentrations starting at 368 µM prepared in the same medium). Doxorubicin was included as an internal positive control under the same dilution pattern, starting at 18 µM whereas unexposed cells were used as negative controls. Afterward, cells were incubated for 72 h at 37 °C and 5% CO2. Cell viability was assayed by the MTT reduction assay according to the optical density (O.D) at 570 nm of the resulting reduction of formazan in a Varioskan Flash Multimode Reader (Thermo Scientific, Waltham, MA, USA). Nonspecific absorbance was corrected by subtracting the O.D of the blank solution that corresponded to complete RPMI-1640 medium. The assay was done in triplicate in at least two independent experiments.
(§2) The cytotoxicity was expressed as the medial lethal concentration (LC50), while the trypanocidal activity was defined as the median effective concentration (EC50) according to the percentage of inhibition of cells and parasites, respectively, as described elsewhere. Both LC50 and EC50 were calculated by the Probit analysis. […] Similarly, the trypanocidal activity was graded according to EC50 values, based on the hit criteria proposed by others into high when EC50 was lower than 10 μM, moderate when EC50 values were higher than 10 μM but lower than 50 μM and, low when EC50 was higher than 50 μM. The relation between cytotoxicity and trypanocidal activity was expressed as the index of selectivity (IS) that corresponded to the ratio when dividing the LC50 by the EC50.

The test system of series [2] is human monocyte cell line U-937 (ATCC CRL-1593.2). Nature of the series: Cytotoxic activity, MTT reduction assay, 72 h. The settings on record: for Cytotoxicity level (grade): U937 cells, graded by LC50; for CC50: human, 72 h. On the procedure:
as §1, §2
Background: Tetrazolium dyes change colour on reduction, which living cells bring about.

Series [3] has as its system intracellular amastigotes of T. cruzi (Tulahuen strain transfected with the β-galactosidase gene). Nature of the series: Anti-trypanosomal activity, β-galactosidase readout in infected U937 macrophages, 72 h. In kind it is cell-based, Trypanosoma cruzi. The settings on record: for Trypanocidal activity compared with the control drug BNZ: T. cruzi intracellular amastigotes, result in words; for SI (index of selectivity, IS = LC50/EC50): LC50 in U937 cells divided by EC50 against T. cruzi. On the procedure: This activity was carried out in intracellular amastigotes of T. cruzi (Tulahuen strain transfected with the β-galactosidase gene. Briefly, metacyclic trypomastigotes were cultured at 26 °C for ten days in a modified NNN (Novy−McNeal−Nicolle) medium. U937 cells were seeded in 96-well tissue culture plates at a density of 2.5 × 10^4 cells in 100 μL of complete RPMI-1640 medium/well and exposed for 24 h to phorbol myristate acetate (1 ng/mL) to induce transformation of monocytes into macrophages. Cells were infected with trypomastigotes (5 parasites per cell) and incubated for 24 h at 37 °C, 5% CO2. Wells were washed twice with warm phosphate buffer solution (PBS) to remove noninternalized parasites, and then were added 100 μL of complete RPMI-1640 medium and 100 μL of each concentration of compound (50, 12.5, 3.125 μM). BNZ, at the same concentrations, was used as internal control for trypanocidal activity (positive control), and nontreated cells as controls for infection (negative control). After 72 h of incubation 37 °C, 5% CO2, the viability of intracellular amastigotes was determined by measuring the β-galactosidase activity. For this, 100 μM of Chlorophenol red-β-D- galactopyranoside (CPRG), and 0.1% Nonidet P-40 was added to each well and incubated for 4 h at 37 °C, […] protected from light. After that, measurement β-galactosidase activity was measured at 570 nm on a Varioskan, Thermo spectrophotometer. Nonspecific absorbance was subtracted from the measurement. Infected cells exposed to benznidazole were used as controls for anti-trypanosomal activity. Determinations were done in triplicate with at least two independent experiments.

[4] abbreviates: Trypanosoma cruzi, TULAHUEN, U-937, 72 h, intracellular amastigotes of T. cruzi Tulahuen in U937 macrophages, 72 h, average ± SD (SEM), read-out: Trypanocidal Activity (EC50).

For the molecule `O=C(Cn1ccnc1[N+](=O)[O-])NCc1ccccc1` [BNZ, benznidazole, reference compound], in series [1], the CC50 (commonly the concentration at which the toxic effect on the cells reaches its halfway point) at 72 h is more than 768 µM. The “Cytotoxicity level (grade)” value in series [2] is given as “no cytotoxicity”. Moreover, the EC50 is 56.5 ± 1.5 µM in series [3] (setting [4]) and 10 to 50 µM in series [3] (Trypanosoma cruzi, TULAHUEN, U-937, T. cruzi intracellular amastigotes, graded by EC50, read-out: Trypanocidal activity (grade)).
`CC(=O)c1cc(O)ccc1O` [Compound 6, 1-(2,5-Dihydroxyphenyl)ethan-1-one] showed a CC50 at 72 h in series [1] of less than 10 µM. Also, in series [2], the “Cytotoxicity level (grade)” value is given as “high (high when LC50 values were lower than 50 μM)” and the CC50 came to 6.3 µM. For the same molecule, the “Trypanocidal activity compared with the control drug BNZ” value in series [3] is recorded as “much better trypanocidal activity than the control drug BNZ”.
As to `CC(=O)c1c(O)cccc1O` [Compound 7, 1-(2,6-Dihydroxyphenyl)ethan-1-one], the midpoint of cytotoxicity in series [1], the CC50 at 72 h, lay at 10.5 ± 0.6 µM. The midpoint of cytotoxicity in series [2], the CC50, lay at 15.3 ± 1.9 µM. Also, the “SI (index of selectivity, IS = LC50/EC50)” value in series [3] turned out to be 1.5. The “Trypanocidal activity compared with the control drug BNZ” value in series [3] is given as “much better trypanocidal activity than the control drug BNZ”. In addition, the EC50 in series [3] (setting [4]) was less than 10 µM; in series [3] (intracellular amastigotes of T. cruzi Tulahuen in U937 macrophages, 72 h, average ± SD (SEM), read-out: Trypanocidal Activity (EC50)), 10.5 ± 0.6 µM.
`CC(=O)c1c(O)ccc(CC=C(C)C)c1O` [Compound 16, 1-(2,6-Dihydroxy-3-(3-methylbut-2-en-1-yl)phenyl)ethan-1-one] registered a CC50 at 72 h in series [1] of less than 10 µM. Besides, in series [2], the “Cytotoxicity level (grade)” value is “high (high when LC50 values were lower than 50 μM)” and the CC50 worked out at 7.8 ± 3.1 µM. Also, in series [3], the “SI (index of selectivity, IS = LC50/EC50)” value is less than 2. Further, the EC50 in series [3] (Trypanosoma cruzi, TULAHUEN, U-937, 72 h, read-out: Trypanocidal Activity (EC50), intracellular amastigotes of T. cruzi Tulahuen in U937 macrophages, 72 h, average ± SD (SEM)) is more than 4 µM.
